Reference: patent US10081631B2, “2-(1H-indazol-3-yl)-1H-imidazo[4,5-C]pyridine and therapeutic uses thereof” (Samumed, LLC, priority 2014, dated 2018)

tested on: Wnt activity (Sp5-Luc reporter, SW480 colon carcinoma cells); experiment: Screening assay for Wnt activity: Sp5-Luc reporter gene assay in SW480 cells; type: cell-based; conditions: Homo sapiens, 42 h incubation, luminescence
Excerpt: The screening assay for Wnt activity is described as follows. Reporter cell lines can be generated by stably transducing cancer cell lines (e.g., colon cancer) or primary cells (e.g., IEC-6 intestinal cells) with a lentiviral construct that includes a Wnt-responsive promoter driving expression of the firefly luciferase gene.
SW480 colon carcinoma cells were transduced with a lentiviral vector expressing luciferase with a human Sp5 promoter consisting of a sequence of eight TCF/LEF binding sites. SW480 cells stably expressing the Sp5-Luc reporter gene and a hygromycin resistance gene were selected by treatment with 150 μg/ml of hygromycin for 7 days. These stably transduced SW480 cells were expanded in cell culture and used for all further screening activities. For Sp5-Luc reporter gene assays, the cells were plated at 10,000 cells/well in 96-well plates with growth medium containing 10% fetal calf serum and incubated overnight at 37° C. and 5% CO2. Each compound was dissolved in DMSO as a 10 mM stock in standard j-vials and used to prepare compound source plates in dose-response format with 3-fold serial dilutions and a 10 mM top concentration. Compound transfer from serially diluted source plates to assay plates containing the cells was accomplished using a pintool (Multimek 96, Beckman equipped with V&P Scientific FP1S50H pins) based liquid handling protocol. This protocol used a slotted pin to transfer 50 nl of compound from a source plate well to an assay plate well containing 50 μl of cells in growth medium. […] Control wells received 50 nl of DMSO treatment for normalization and calculating IC50 values. The treated cells were incubated at 37° C. and 5% CO2 for an additional forty-two hours. Following incubation, the growth medium was removed and 50 μl of BrightGlo luminescence reagent (Promega) was added to each well of the 96-well assay plates. The plates were placed on an orbital shaker for 5 min and then luminescence was quantified on the Victor3 (Perkin Elmer) plate reader. Readings were normalized to DMSO only treated cells, and normalized activities were utilized for IC50 calculations using the dose-response log (inhibitor) vs. response-variable slope (four parameters) nonlinear regression feature available in GraphPad Prism 5.0 or 6.0.

IC50 | Structure (SMILES)
187 nM | CC(=O)c1ccc(-c2nccc3[nH]c(-c4n[nH]c5ccc(-c6cncc(NC(=O)CC(C)(C)C)c6)cc45)nc23)s1 [Compound 380, N-(5-(3-(4-(5-Acetylthiophen-2-yl)-1H-imidazo[4,5-c]pyridin-2-yl)-1H-indazol-5-yl)pyridin-3-yl)-3,3-dimethylbutanamide]
20 nM | COc1cc(F)cc(-c2nccc3[nH]c(-c4n[nH]c5ccc(-c6cncc(NC(=O)CC(C)C)c6)cc45)nc23)c1 [Compound 2208, N-(5-(3-(4-(3-Fluoro-5-methoxyphenyl)-1H-imidazo[4,5-c]pyridin-2-yl)-1H-indazol-5-yl)pyridin-3-yl)-3-methylbutanamide]
102 nM | CCCC(=O)Nc1cncc(-c2ccc3[nH]nc(-c4nc5c(-c6ccncc6)nccc5[nH]4)c3c2)c1 [Compound 121, N-(5-(3-(4-(Pyridin-4-yl)-1H-imidazo[4,5-c]pyridin-2-yl)-1H-indazol-5-yl)pyridin-3-yl)butyramide]
> 10000 nM | O=C(Nc1cncc(-c2ccc3[nH]nc(-c4nc5c(-c6ccccn6)nccc5[nH]4)c3c2)c1)c1ccccc1 [Compound 141, N-(5-(3-(4-(Pyridin-2-yl)-1H-imidazo[4,5-c]pyridin-2-yl)-1H-indazol-5-yl)pyridin-3-yl)benzamide]
370 nM | CC(C)CC(=O)Nc1cncc(-c2ccc3[nH]nc(-c4nc5c(-c6cc(F)cc(OCCN(C)C)c6)nccc5[nH]4)c3c2)c1 [Compound 2076, N-(5-(3-(4-(3-(2-(Dimethylamino)ethoxy)-5-fluorophenyl)-1H-imidazo[4,5-c]pyridin-2-yl)-1H-indazol-5-yl)pyridin-3-yl)-3-methylbutanamide]
65 nM | CN1CCN(c2nccc3[nH]c(-c4n[nH]c5ccc(-c6cccnc6)cc45)nc23)CC1 [Compound 212, 4-(4-Methylpiperazin-1-yl)-2-(5-(pyridin-3-yl)-1H-indazol-3-yl)-1H-imidazo [4,5-c]pyridine]
36 nM | O=C(Cc1ccccc1)Nc1cncc(-c2ccc3[nH]nc(-c4nc5c(-c6ccncc6)nccc5[nH]4)c3c2)c1 [Compound 114, 2-Phenyl-N-(5-(3-(4-(pyridin-4-yl)-1H-imidazo[4,5-c]pyridin-2-yl)-1H-indazol-5-yl)pyridin-3-yl)acetamide]
50 nM | FC1(F)CCN(c2nccc3[nH]c(-c4n[nH]c5ccc(-c6cccnc6)cc45)nc23)CC1 [Compound 2273, 4-(4,4-Difluoropiperidin-1-yl)-2-(5-(pyridin-3-yl)-1H-indazol-3-yl)-1H-imidazo[4,5-c]pyridine]
97.1 nM | CN1CCN(c2nccc3[nH]c(-c4n[nH]c5ccc(-c6cncc(N)c6)cc45)nc23)CC1 [Compound 211, 5-(3-(4-(4-Methylpiperazin-1-yl)-1H-imidazo[4,5-c]pyridin-2-yl)-1H-indazol-5-yl)pyridin-3-amine]
439 nM | CN1CCN(c2nccc3[nH]c(-c4n[nH]c5ccc(-c6cncc(F)c6)cc45)nc23)CC1 [Compound 2276, 2-(5-(5-Fluoropyridin-3-yl)-1H-indazol-3-yl)-4-(4-methylpiperazin-1-yl)-1H-imidazo[4,5-c]pyridine]
575 nM | Fc1cccc(-c2nccc3[nH]c(-c4n[nH]c5ccc(-c6cncc(OCc7ccccc7)c6)cc45)nc23)c1 [Compound 1782, 2-(5-(5-(Benzyloxy)pyridin-3-yl)-1H-indazol-3-yl)-4-(3-fluorophenyl)-1H-imidazo[4,5-c]pyridine]
637 nM | CN(C)Cc1cncc(-c2cc3c(-c4nc5c(-c6cc(F)cc(CNS(C)(=O)=O)c6)nccc5[nH]4)n[nH]c3cc2F)c1 [Compound 1288, N-(3-(2-(5-(5-((Dimethylamino)methyl)pyridin-3-yl)-6-fluoro-1H-indazol-3-yl)-1H-imidazo[4,5-c]pyridin-4-yl)-5-fluorobenzyl)methanesulfonamide]
505 nM | O=C(CC1CCCCC1)Nc1cncc(-c2ccc3[nH]nc(-c4nc5c(-c6cccc(F)c6)nccc5[nH]4)c3c2)c1 [Compound 1783, 2-Cyclohexyl-N-(5-(3-(4-(3-fluorophenyl)-1H-imidazo[4,5-c]pyridin-2-yl)-1H-indazol-5-yl)pyridin-3-yl)acetamide]
305 nM | CC(C)CC(=O)Nc1cncc(-c2ccc3[nH]nc(-c4nc5c(-c6cc(F)cc(OCCN7CCCC7)c6)nccc5[nH]4)c3c2)c1 [Compound 2120, N-(5-(3-(4-(3-Fluoro-5-(2-(pyrrolidin-1-yl)ethoxy)phenyl)-1H-imidazo[4,5-c]pyridin-2-yl)-1H-indazol-5-yl)pyridin-3-yl)-3-methylbutanamide]
20 nM | Cn1cc(-c2ccc3[nH]nc(-c4nc5c(N6CCC(F)(F)CC6)nccc5[nH]4)c3c2)cn1 [Compound 2281, 4-(4,4-Difluoropiperidin-1-yl)-2-(5-(1-methyl-1H-pyrazol-4-yl)-1H-indazol-3-yl)-1H-imidazo[4,5-c]pyridine]
315 nM | Fc1cncc(-c2ccc3[nH]nc(-c4nc5c(N6CCC(F)(F)CC6)nccc5[nH]4)c3c2)c1 [Compound 2277, 4-(4,4-Difluoropiperidin-1-yl)-2-(5-(5-fluoropyridin-3-yl)-1H-indazol-3-yl)-1H-imidazo[4,5-c]pyridine]

More lines, now with the values behind:

Structure (SMILES) | IC50
Cc1ncc(-c2ccc3[nH]nc(-c4nc5c(-c6cccc(F)c6)nccc5[nH]4)c3c2)n1C [Compound 1773, 2-(5-(1,2-Dimethyl-1H-imidazol-5-yl)-1H-indazol-3-yl)-4-(3-fluorophenyl)-1H-imidazo[4,5-c]pyridine] | 23 nM
Fc1cccc(-c2nccc3[nH]c(-c4n[nH]c5ccc(-c6cncc(OCCN7CCCC7)c6)cc45)nc23)c1 [Compound 1778, 4-(3-Fluorophenyl)-2-(5-(5-(2-(pyrrolidin-1-yl)ethoxy)pyridin-3-yl)-1H-indazol-3-yl)-1H-imidazo[4,5-c]pyridine] | 280 nM
CN(C)Cc1cncc(-c2ccc3[nH]nc(-c4nc5c(-c6cc(F)cc(CNS(C)(=O)=O)c6)nccc5[nH]4)c3c2F)c1 [Compound 1729, N-(3-(2-(5-(5-((Dimethylamino)methyl)pyridin-3-yl)-4-fluoro-1H-indazol-3-yl)-1H-imidazo[4,5-c]pyridin-4-yl)-5-fluorobenzyl)methanesulfonamide] | 1100 nM
CN(C)Cc1cncc(-c2cc(F)c3[nH]nc(-c4nc5c(-c6cccc(F)c6)nccc5[nH]4)c3c2)c1 [Compound 456, 1-(5-(7-Fluoro-3-(4-(3-fluorophenyl)-1H-imidazo[4,5-c]pyridin-2-yl)-1H-indazol-5-yl)pyridin-3-yl)-N,N-dimethylmethanamine] | 90 nM
CN(C)Cc1cncc(-c2cc(F)c3[nH]nc(-c4nc5c(-c6ccsc6)nccc5[nH]4)c3c2)c1 [Compound 688, 1-(5-(7-Fluoro-3-(4-(thiophen-3-yl)-1H-imidazo[4,5-c]pyridin-2-yl)-1H-indazol-5-yl)pyridin-3-yl)-N,N-dimethylmethanamine] | 415 nM
CN(C)Cc1cncc(-c2ccc3[nH]nc(-c4nc5c(-c6ccsc6)nccc5[nH]4)c3c2F)c1 [Compound 1573, 1-(5-(4-Fluoro-3-(4-(thiophen-3-yl)-1H-imidazo[4,5-c]pyridin-2-yl)-1H-indazol-5-yl)pyridin-3-yl)-N,N-dimethylmethanamine] | 3060 nM
CN(C)Cc1cncc(-c2cc(F)c3[nH]nc(-c4nc5c(-c6cc(F)cc(CNS(C)(=O)=O)c6)nccc5[nH]4)c3c2)c1 [Compound 844, N-(3-(2-(5-(5-((Dimethylamino)methyl)pyridin-3-yl)-7-fluoro-1H-indazol-3-yl)-1H-imidazo[4,5-c]pyridin-4-yl)-5-fluorobenzyl)methanesulfonamide] | 96 nM
CN(C)Cc1cncc(-c2cc3c(-c4nc5c(-c6cccc(F)c6)nccc5[nH]4)n[nH]c3cc2F)c1 [Compound 898, 1-(5-(6-Fluoro-3-(4-(3-fluorophenyl)-1H-imidazo[4,5-c]pyridin-2-yl)-1H-indazol-5-yl)pyridin-3-yl)-N,N-dimethylmethanamine] | 1450 nM
CN(C)Cc1cncc(-c2ccc3[nH]nc(-c4nc5c(-c6cccc(F)c6)nccc5[nH]4)c3c2F)c1 [Compound 1339, 1-(5-(4-Fluoro-3-(4-(3-fluorophenyl)-1H-imidazo[4,5-c]pyridin-2-yl)-1H-indazol-5-yl)pyridin-3-yl)-N,N-dimethylmethanamine] | 1180 nM
CC(C)Nc1cncc(-c2ccc3[nH]nc(-c4nc5c(N6CCCCC6)nccc5[nH]4)c3c2)c1 [Compound 168, N-Isopropyl-5-(3-(4-(piperidin-1-yl)-1H-imidazo[4,5-c]pyridin-2-yl)-1H-indazol-5-yl)pyridin-3-amine] | 88.1 nM
CC(C)CC(=O)Nc1cncc(-c2ccc3[nH]nc(-c4nc5c(-c6cc(O)cc(F)c6)nccc5[nH]4)c3c2)c1 [Compound 2164, N-(5-(3-(4-(3-Fluoro-5-hydroxyphenyl)-1H-imidazo[4,5-c]pyridin-2-yl)-1H-indazol-5-yl)pyridin-3-yl)-3-methylbutanamide] | 35 nM
